Test results: patent US20170035845A1, “Compositions and Methods for Inhibiting Pro-Inflammatory Cytokine Gene Expression” (The Regents of the University of California, priority 2015, published 2017)

What was measured:
NF-κB = NF-κB activity assay (SEAP reporter, Quantiblue) in THP-1 Dual cells; assay type: cell-based, human; settings: LPS 100 ng/ml
Description: One ml aliquots of PMA-differentiated THP-1 Dual cells (3.3×10^5 cells/nil) in 24 well tissue culture plates were starved for 1 day in complete medium with 1% HI FBS as described above. For experiments with S7 peptide, 0.5 ml cultures in 48 well plates were used. Fresh medium containing 1% HI FBS was added to the cells and after 2 hours cells were stimulated with 100 ng/ml LPS or 25 ng/ml Pam3CSK4 in the presence of RTD-1 or 0.01% acetic acid (HOAc, vehicle). In some experiments cells were pre-incubated with marimastat, Ly294002 or vehicle for 1 hour prior to addition of LPS and/or RTD-1 (SEQ ID NO. 1). Following overnight incubation, medium was clarified by centrifugation and SEAP activity was determined using Quantiblue reagent at 37° C. and measurement of absorbance at 625 nm. To test the effect of RTD-1 on TLR9-dependent NF-κB activation, 2×10^5 HEK-Blue™ hTLR9 cells/ml were cultured for 1 day in 24 well plates and stimulated overnight with ODN2006 with or without RTD-1. Medium was harvested and SEAP activity was assayed using Quantiblue™ as above. NF-κB activation was defined as fold stimulation of SEAP activity with respect to control cells.

THP-1 macrophages = experiment: Cytokine secretion ELISA, LPS-stimulated differentiated THP-1 cells; assay type: cell-based, human; settings: LPS 100 ng/ml, comparison RTD-1 versus marimastat
Description: THP-1 monocytes (ATCC, Manassas, Va.) were cultured in RPMI 1640+10% FBS and penicillin/streptomycin (P/S). THP-1 Dual cells (Invivogen, San Diego, Calif.) which express the NF-κB reporter, secreted embryonic alkaline phosphatase (SEAP), were grown in RPMI 1640+10% HI-FBS and antibiotics. THP-1 cell differentiation was induced by treatment of cells (˜3.3×10^5 cells/ml) with 100 nM PMA and cultured for 2 days. HEK-Blue™ hTLR9 cells (Invivogen) were grown in DMEM medium containing 10% HI-FBS, P/S and normocin. Cells were cultured at 37° C. in 5% CO2. Cytokine assays. PMA-differentiated THP-1 cells (˜8×10^5 cells) cultured in 6-well plates were washed twice with complete medium and grown in fresh medium containing 1% FBS for 24 hours. Cells were washed twice with fresh medium and incubated for 2 hours prior to further manipulation. Cells were stimulated with 100 ng/ml LPS in the presence or absence of 10 μg/ml RTD-1 or vehicle (0.01% acetic acid) for 2 hours. In some experiments, cells were first incubated for 1 hour with 10 μg/ml of marimastat or vehicle (DMSO), after which LPS and/or RTD-1 were added and incubated for 2 hours as above. Peripheral blood CD14+ monocytes (Lonza, Walkersville, Md.) were thawed, rinsed with RPMI 1640 containing 10% HI FBS, P/S and normocin and then resuspended in RPMI 1640 containing 1% HI FBS plus antibiotics as above (10^6 cells/nil) for 2 hours. The cells were then stimulated for 4 hours as described in the legend. Medium was collected, clarified by centrifugation first at 250×g for 8 minutes and then at 5000×g for 5 minutes. TNF-α, IL-1β and IL-8 were quantified by ELISA (Life Technologies, Carlsbad, Calif.).

Compound | LPS-stimulated NF-κB activation (NF-κB; comparison RTD-1 versus marimastat, RTD-1 in the presence or absence of marimastat) | release of TNF-α by LPS-stimulated THP-1 cells (THP-1 macrophages) | secretion of IL-1β by LPS-stimulated THP-1 cells (THP-1 macrophages) | inhibition of NF-κB activity (NF-κB; equimolar concentrations used in place of RTD-1)
CNC(=O)[C@@H](NC(=O)[C@H](CC(C)C)[C@H](O)C(=O)NO)C(C)(C)C [marimastat, reference compound] | no effect | efficiently blocked | did not affect | 
HNP-1: human neutrophil α-defensin HNP-1 purified from neutrophils [reference compound] |  |  |  | no inhibition
